Source: patent US20230340012A1, “NATURAL AND SYNTHETIC COMPOUNDS FOR TREATING CANCER AND OTHER DISEASES” (PACIFIC ARROW LIMITED, priority 2009, published 2023)

tested on: cancer cells; assay: MTT cytotoxic assay of esterification products (Cytotoxicity activity); assay type: cell-based, human; details: esterification products isolated with HPLC; graded strong / moderate / weak
Procedure, shortened: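 Cytotoxicity was read by MTT (Carmichael method, modified), with cells seeded 24 h ahead of treatment. Sixteen human cancer lines spanning bone, lung, bladder, ovary, colon, pancreas, prostate, skin, mouth, kidney, breast, liver, brain, leukemia and cervix were used. Test samples were acyl chloride esterification products of triterpenes, as mixtures or HPLC-purified compounds.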

Compound	Cytotoxicity activity
CC=C(C)C(=O)OCC1(C)C(O)CCC2(C)C1CCC1(C)C2CC=C2C3CC(C)(C)C(OC(=O)C=Cc4ccccc4)C(O)C3(COC(=O)C=Cc3ccccc3)C(O)CC21C (stereo not drawn) [Tig—Cin—2]	moderate
CC=C(C)C(=O)OCC1(C)C(O)CCC2(C)C1CCC1(C)C2CC=C2C3CC(C)(C)C(O)C(OC(=O)C=Cc4ccccc4)C3(COC(=O)C=Cc3ccccc3)C(O)CC21C (stereo not drawn) [Tig—Cin—3]	moderate
CC=C(C)C(=O)OCC1(C)C(OC(=O)C=Cc2ccccc2)CCC2(C)C1CCC1(C)C2CC=C2C3CC(C)(C)C(O)C(O)C3(COC(=O)C=Cc3ccccc3)C(O)CC21C (stereo not drawn) [Tig—Cin—4]	moderate
CC=C(C)C(=O)OCC1(C)C(O)CCC2(C)C1CCC1(C)C2CC=C2C3CC(C)(C)C(OC(=O)C=Cc4ccccc4)C(O)C3(CO)C(O)CC21C (stereo not drawn) [Tig—Cin—5]	moderate
CC=C(C)C(=O)OCC1(C)C(O)CCC2(C)C1CCC1(C)C2CC=C2C3CC(C)(C)C(O)C(OC(=O)C=Cc4ccccc4)C3(CO)C(O)CC21C (stereo not drawn) [Tig—Cin—6]	moderate
CC=CC(=O)OCC12C(O)CC3(C)C(=CCC4C5(C)CCC(O)C(C)(COC(=O)C(C)=CC)C5CCC43C)C1CC(C)(C)C(O)C2O (stereo not drawn) [Tig—Cro—1]	strong
CC=CC(=O)OCC12C(O)CC3(C)C(=CCC4C5(C)CCC(O)C(C)(COC(=O)C(C)=CC)C5CCC43C)C1CC(C)(C)C(OC(=O)C=CC)C2O (stereo not drawn) [Tig—Cro—2]	moderate
CC=CC(=O)OCC12C(O)CC3(C)C(=CCC4C5(C)CCC(O)C(C)(COC(=O)C(C)=CC)C5CCC43C)C1CC(C)(C)C(O)C2OC(=O)C=CC (stereo not drawn) [Tig—Cro—3]	moderate
CC=CC(=O)OCC12C(O)CC3(C)C(=CCC4C5(C)CCC(OC(=O)C=CC)C(C)(COC(=O)C(C)=CC)C5CCC43C)C1CC(C)(C)C(O)C2O (stereo not drawn) [Tig—Cro—4]	moderate
CC=CC(=O)OC1C(O)C2(CO)C(O)CC3(C)C(=CCC4C5(C)CCC(O)C(C)(COC(=O)C(C)=CC)C5CCC43C)C2CC1(C)C (stereo not drawn) [Tig—Cro—5]	moderate
CC=CC(=O)OC1C(O)C(C)(C)CC2C3=CCC4C5(C)CCC(O)C(C)(COC(=O)C(C)=CC)C5CCC4(C)C3(C)CC(O)C21CO (stereo not drawn) [Tig—Cro—6]	moderate
CC=C(C)C(=O)OCC1(C)C(O)CCC2(C)C1CCC1(C)C2CC=C2C3CC(C)(C)C(O)C(O)C3(COC(=O)C(CC)CC)C(O)CC21C (stereo not drawn) [Tig—Eth—1]	strong
CC=C(C)C(=O)OCC1(C)C(O)CCC2(C)C1CCC1(C)C2CC=C2C3CC(C)(C)C(OC(=O)C(CC)CC)C(O)C3(COC(=O)C(CC)CC)C(O)CC21C (stereo not drawn) [Tig—Eth—2]	moderate
CC=C(C)C(=O)OCC1(C)C(O)CCC2(C)C1CCC1(C)C2CC=C2C3CC(C)(C)C(O)C(OC(=O)C(CC)CC)C3(COC(=O)C(CC)CC)C(O)CC21C (stereo not drawn) [Tig—Eth—3]	moderate
CC=C(C)C(=O)OCC1(C)C(O)CCC2(C)C1CCC1(C)C2CC=C2C3CC(C)(C)C(OC(=O)C(CC)CC)C(O)C3(CO)C(O)CC21C (stereo not drawn) [Tig—Eth—5]	moderate
CC=C(C)C(=O)OCC1(C)C(O)CCC2(C)C1CCC1(C)C2CC=C2C3CC(C)(C)C(O)C(OC(=O)C(CC)CC)C3(CO)C(O)CC21C (stereo not drawn) [Tig—Eth—6]	moderate
CC=C(C)C(=O)OCC1(C)C(O)CCC2(C)C1CCC1(C)C2CC=C2C3CC(C)(C)C(O)C(O)C3(COC(=O)CCCCC)C(O)CC21C (stereo not drawn) [Tig—Hex—1]	strong
CC=C(C)C(=O)OCC1(C)C(O)CCC2(C)C1CCC1(C)C2CC=C2C3CC(C)(C)C(OC(=O)CCCCC)C(O)C3(COC(=O)CCCCC)C(O)CC21C (stereo not drawn) [Tig—Hex—2]	moderate
CC=C(C)C(=O)OCC1(C)C(O)CCC2(C)C1CCC1(C)C2CC=C2C3CC(C)(C)C(O)C(OC(=O)CCCCC)C3(COC(=O)CCCCC)C(O)CC21C (stereo not drawn) [Tig—Hex—3]	moderate
CC=C(C)C(=O)OCC1(C)C(OC(=O)CCCCC)CCC2(C)C1CCC1(C)C2CC=C2C3CC(C)(C)C(O)C(O)C3(COC(=O)CCCCC)C(O)CC21C (stereo not drawn) [Tig—Hex—4]	moderate
CC=C(C)C(=O)OCC1(C)C(O)CCC2(C)C1CCC1(C)C2CC=C2C3CC(C)(C)C(OC(=O)CCCCC)C(O)C3(CO)C(O)CC21C (stereo not drawn) [Tig—Hex—5]	moderate
CC=C(C)C(=O)OCC1(C)C(O)CCC2(C)C1CCC1(C)C2CC=C2C3CC(C)(C)C(O)C(OC(=O)CCCCC)C3(CO)C(O)CC21C (stereo not drawn) [Tig—Hex—6]	moderate
C=CCCC(=O)OCC12C(O)CC3(C)C(=CCC4C5(C)CCC(O)C(C)(COC(=O)C(C)=CC)C5CCC43C)C1CC(C)(C)C(O)C2O (stereo not drawn) [Tig—Pen—1]	strong
C=CCCC(=O)OCC12C(O)CC3(C)C(=CCC4C5(C)CCC(O)C(C)(COC(=O)C(C)=CC)C5CCC43C)C1CC(C)(C)C(OC(=O)CCC=C)C2O (stereo not drawn) [Tig—Pen—2]	moderate

Compound	Cytotoxicity activity
C=CCCC(=O)OCC12C(O)CC3(C)C(=CCC4C5(C)CCC(O)C(C)(COC(=O)C(C)=CC)C5CCC43C)C1CC(C)(C)C(O)C2OC(=O)CCC=C (stereo not drawn) [Tig—Pen—3]	moderate
C=CCCC(=O)OCC12C(O)CC3(C)C(=CCC4C5(C)CCC(OC(=O)CCC=C)C(C)(COC(=O)C(C)=CC)C5CCC43C)C1CC(C)(C)C(O)C2O (stereo not drawn) [Tig—Pen—4]	moderate
C=CCCC(=O)OC1C(O)C2(CO)C(O)CC3(C)C(=CCC4C5(C)CCC(O)C(C)(COC(=O)C(C)=CC)C5CCC43C)C2CC1(C)C (stereo not drawn) [Tig—Pen—5]	moderate
C=CCCC(=O)OC1C(O)C(C)(C)CC2C3=CCC4C5(C)CCC(O)C(C)(COC(=O)C(C)=CC)C5CCC4(C)C3(C)CC(O)C21CO (stereo not drawn) [Tig—Pen—6]	moderate
CC=C(C)C(=O)OCC1(C)C(O)CCC2(C)C1CCC1(C)C2CC=C2C3CC(C)(C)C(OC(C)=O)C(OC(C)=O)C3(COC(=O)C(C)=CC)C(O)CC21C (stereo not drawn) [Tig—R—Acy—1]	weak
CC=C(C)C(=O)OCC1(C)C(O)CCC2(C)C1CCC1(C)C2CC=C2C3CC(C)(C)C(OC(C)=O)C(O)C3(COC(=O)C(C)=CC)C(O)CC21C (stereo not drawn) [Tig—R—Acy—2]	moderate
CC=C(C)C(=O)OCC1(C)C(O)CCC2(C)C1CCC1(C)C2CC=C2C3CC(C)(C)C(O)C(OC(C)=O)C3(COC(=O)C(C)=CC)C(O)CC21C (stereo not drawn) [Tig—R—Acy—3]	moderate
CC=C(C)C(=O)OCC1(C)C(OC(C)=O)CCC2(C)C1CCC1(C)C2CC=C2C3CC(C)(C)C(O)C(O)C3(COC(=O)C(C)=CC)C(O)CC21C (stereo not drawn) [Tig—R—Acy—4]	moderate
CC=C(C)C(=O)OCC1(C)C(OC(C)=O)CCC2(C)C1CCC1(C)C2CC=C2C3CC(C)(C)C(OC(C)=O)C(O)C3(COC(=O)C(C)=CC)C(O)CC21C (stereo not drawn) [Tig—R—Acy—5]	weak
CC=C(C)C(=O)OCC1(C)C(OC(C)=O)CCC2(C)C1CCC1(C)C2CC=C2C3CC(C)(C)C(O)C(OC(C)=O)C3(COC(=O)C(C)=CC)C(O)CC21C (stereo not drawn) [Tig—R—Acy—6]	weak
CC=C(C)C(=O)OCC1(C)C(O)CCC2(C)C1CCC1(C)C2CC=C2C3CC(C)(C)C(OC(=O)C(C)=CC)C(OC(=O)C(C)=CC)C3(COC(=O)C(C)=CC)C(O)CC21C (stereo not drawn) [Tig—R—Ang—1]	weak
CC=C(C)C(=O)OCC1(C)C(OC(=O)C(C)=CC)CCC2(C)C1CCC1(C)C2CC=C2C3CC(C)(C)C(OC(=O)C(C)=CC)C(O)C3(COC(=O)C(C)=CC)C(O)CC21C (stereo not drawn) [Tig—R—Ang—5]	weak
CC=C(C)C(=O)OCC1(C)C(OC(=O)C(C)=CC)CCC2(C)C1CCC1(C)C2CC=C2C3CC(C)(C)C(O)C(OC(=O)C(C)=CC)C3(COC(=O)C(C)=CC)C(O)CC21C (stereo not drawn) [Tig—R—Ang—6]	weak
CC=C(C)C(=O)OCC1(C)C(O)CCC2(C)C1CCC1(C)C2CC=C2C3CC(C)(C)C(OC(=O)C=Cc4ccccc4)C(OC(=O)C=Cc4ccccc4)C3(COC(=O)C(C)=CC)C(O)CC21C (stereo not drawn) [Tig—R—Cin—1]	weak
CC=C(C)C(=O)OCC1(C)C(O)CCC2(C)C1CCC1(C)C2CC=C2C3CC(C)(C)C(OC(=O)C=Cc4ccccc4)C(O)C3(COC(=O)C(C)=CC)C(O)CC21C (stereo not drawn) [Tig—R—Cin—2]	moderate
CC=C(C)C(=O)OCC1(C)C(O)CCC2(C)C1CCC1(C)C2CC=C2C3CC(C)(C)C(O)C(OC(=O)C=Cc4ccccc4)C3(COC(=O)C(C)=CC)C(O)CC21C (stereo not drawn) [Tig—R—Cin—3]	moderate
CC=C(C)C(=O)OCC1(C)C(OC(=O)C=Cc2ccccc2)CCC2(C)C1CCC1(C)C2CC=C2C3CC(C)(C)C(O)C(O)C3(COC(=O)C(C)=CC)C(O)CC21C (stereo not drawn) [Tig—R—Cin—4]	moderate
CC=C(C)C(=O)OCC1(C)C(OC(=O)C=Cc2ccccc2)CCC2(C)C1CCC1(C)C2CC=C2C3CC(C)(C)C(OC(=O)C=Cc4ccccc4)C(O)C3(COC(=O)C(C)=CC)C(O)CC21C (stereo not drawn) [Tig—R—Cin—5]	weak
CC=C(C)C(=O)OCC1(C)C(OC(=O)C=Cc2ccccc2)CCC2(C)C1CCC1(C)C2CC=C2C3CC(C)(C)C(O)C(OC(=O)C=Cc4ccccc4)C3(COC(=O)C(C)=CC)C(O)CC21C (stereo not drawn) [Tig—R—Cin—6]	weak
CC=CC(=O)OC1C(OC(=O)C=CC)C2(COC(=O)C(C)=CC)C(O)CC3(C)C(=CCC4C5(C)CCC(O)C(C)(COC(=O)C(C)=CC)C5CCC43C)C2CC1(C)C (stereo not drawn) [Tig—R—Cro—1]	weak
CC=CC(=O)OC1C(O)C2(COC(=O)C(C)=CC)C(O)CC3(C)C(=CCC4C5(C)CCC(O)C(C)(COC(=O)C(C)=CC)C5CCC43C)C2CC1(C)C (stereo not drawn) [Tig—R—Cro—2]	moderate
CC=CC(=O)OC1C(O)C(C)(C)CC2C3=CCC4C5(C)CCC(O)C(C)(COC(=O)C(C)=CC)C5CCC4(C)C3(C)CC(O)C21COC(=O)C(C)=CC (stereo not drawn) [Tig—R—Cro—3]	moderate
CC=CC(=O)OC1CCC2(C)C(CCC3(C)C2CC=C2C4CC(C)(C)C(O)C(O)C4(COC(=O)C(C)=CC)C(O)CC23C)C1(C)COC(=O)C(C)=CC (stereo not drawn) [Tig—R—Cro—4]	moderate
CC=CC(=O)OC1C(O)C2(COC(=O)C(C)=CC)C(O)CC3(C)C(=CCC4C5(C)CCC(OC(=O)C=CC)C(C)(COC(=O)C(C)=CC)C5CCC43C)C2CC1(C)C (stereo not drawn) [Tig—R—Cro—5]	weak
